Marks after values point to notes of the source that are not given here.
Tests used:
Assay type in all cases: in vivo
[1] = tested on: Blumeria graminis f. sp. tritici (also known as Erysiphe graminis f. sp. tritici, the causal agent of wheat powdery mildew); assay: Test D: wheat powdery mildew, preventive spray on wheat seedlings, visual disease rating; details: for Test D rating (100 = 100% disease control, 0 = no disease control relative to the controls): wheat powdery mildew, preventive spray on wheat seedlings; for Test D rating (% disease control, wheat powdery mildew): 100 = 100% disease control
How it was run: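 Compound suspended in acetone/water (50/50) with 250 ppm Trem 014 and sprayed to run-off on wheat seedlings (200 ppm ≈ 800 g/ha), then inoculated next day with spore dust. Disease rated visually after 8 days at 20 °C as % control relative to untreated plants (0-100).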

[2] = tested on: Puccinia recondite f. sp. tritici (the causal agent of wheat leaf rust); assay: Test A: wheat leaf rust, preventive spray on wheat seedlings, visual disease rating; details: for Test A rating (100 = 100% disease control, 0 = no disease control relative to the controls): wheat leaf rust, preventive spray on wheat seedlings; for Test A rating (% disease control, wheat leaf rust): 100 = 100% disease control
How it was run: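 Wheat seedlings were sprayed to run-off with compound suspended in acetone/water containing 250 ppm Trem 014 (200 ppm ≈ 800 g/ha; some at 40 ppm). Puccinia recondite spores were inoculated the next day. Plants were held 24 h saturated at 20° C, then 7 days at 20° C, and disease control was rated visually on a 0–100 scale against controls.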

[3] = tested on: Botrytis cinerea (the causal agent of tomato Botrytis); assay: Test C: tomato Botrytis, preventive spray on tomato seedlings, visual disease rating; details: for Test C rating (100 = 100% disease control, 0 = no disease control relative to the controls): tomato Botrytis, preventive spray on tomato seedlings; for Test C rating (% disease control, tomato Botrytis): 100 = 100% disease control
How it was run: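 Test suspension (acetone/water with 250 ppm Trem 014; 200 ppm equivalent to 800 g/ha) sprayed to run-off on tomato seedlings; B. cinerea spores inoculated next day. After 48 h saturated humidity at 20° C then 3 days at 24° C, disease rated visually as % control relative to untreated controls (0–100).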

[4] = tested on: Septoria tritici (the causal agent of wheat leaf blotch); assay: Test B: wheat leaf blotch, preventive spray on wheat seedlings, visual disease rating; details: for Test B rating (100 = 100% disease control, 0 = no disease control relative to the controls): wheat leaf blotch, preventive spray on wheat seedlings; for Test B rating (% disease control, wheat leaf blotch): 100 = 100% disease control
How it was run: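 Wheat seedlings sprayed to run-off with compound suspension (acetone/water with 250 ppm Trem 014; 200 ppm ≈ 800 g/ha, some at 40 ppm), inoculated next day with Septoria tritici spores. 48 h saturated humidity at 24 °C, then 19 days at 20 °C; visual rating, 100 = full control.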

[5] = asterisk: 40 ppm test suspension
[6] = no asterisk (standard test suspension concentration, not 40 ppm)
[7] = no asterisk: standard test suspension concentration, 0 = no control relative to controls
[8] = asterisk: 40 ppm test suspension, 0 = no control

Row | SMILES | Test D rating (100 = 100% disease control, 0 = no disease control relative to the controls) [1, 5] | Test A rating (100 = 100% disease control, 0 = no disease control relative to the controls) [2, 5] | Test C rating (100 = 100% disease control, 0 = no disease control relative to the controls) [3, 5] | Test B rating (100 = 100% disease control, 0 = no disease control relative to the controls) [4, 5] | other results
1 | Cc1nc(Br)c(C(O)c2ccc(Cl)cc2Cl)n1-c1c(F)cc(Cl)cc1F (stereo not drawn) [compound 113] | 0* % | 95* % | 0* % | 100* % | 
2 | OC(c1ccc(F)cc1Cl)c1c(Cl)ncn1-c1c(F)cccc1F (stereo not drawn) [Compound 1, 4-chloro-α-(2-chloro-4-fluorophenyl)-1-(2,6-difluorophenyl)-1H-imidazole-5-methanol] |  |  |  |  | Test D rating (100 = 100% disease control, 0 = no disease control relative to the controls) [1, 6]: 99%; Test A rating (100 = 100% disease control, 0 = no disease control relative to the controls) [2, 6]: 100%; Test C rating (100 = 100% disease control, 0 = no disease control relative to the controls) [3, 6]: 99%; Test B rating (100 = 100% disease control, 0 = no disease control relative to the controls) [4, 6]: 100%
3 | Cc1nc(Cl)c(C(O)c2ccc(F)cc2Cl)n1-c1c(F)cc(F)cc1Cl (stereo not drawn) [compound 64] | 93* % | 100* % | 99* % | 100* % | 
4 | Cc1nc(Br)c(C(O)c2ccc(F)cc2Cl)n1-c1c(F)cccc1Cl (stereo not drawn) [compound 188] | 99* % | 100* % | 99* % | 100* % | 
5 | COc1cc(F)ccc1C(O)c1c(Br)nc(C)n1-c1c(F)cccc1F (racemic) [compound 281] | 0* % | 92* % | 0* % | 0* % | 
6 | Cc1nc(Br)c(C(O)c2cccnc2F)n1-c1c(F)cc(F)cc1F (stereo not drawn) [compound 414] |  |  |  |  | Test D rating (% disease control, wheat powdery mildew) [1, 7]: 13%; Test A rating (% disease control, wheat leaf rust) [2, 7]: 100%; Test C rating (% disease control, tomato Botrytis) [3, 7]: 67%; Test B rating (% disease control, wheat leaf blotch) [4, 7]: 100%
7 | Cc1nc(Cl)c(C(O)c2c(F)cc(F)cc2F)n1-c1c(F)cccc1F (stereo not drawn) [compound 100] | 82* % | 100* % | 97* % | 100* % | 
8 | Cc1nc(Br)c(C(O)c2ccc(F)cc2F)n1-c1c(F)cccc1Cl (stereo not drawn) [compound 400] |  |  |  |  | Test D rating (% disease control, wheat powdery mildew) [1, 8]: 100* %; Test A rating (% disease control, wheat leaf rust) [2, 8]: 100* %; Test C rating (% disease control, tomato Botrytis) [3, 8]: 100* %; Test B rating (% disease control, wheat leaf blotch) [4, 8]: 100* %
9 | Cc1ncc(C(O)c2ccc(C#N)cc2F)n1-c1ccc(F)cc1Br (stereo not drawn) [compound 311] | 0* % | 9* % | 0* % | 5* % | 
10 | Cc1ncc(C(O)c2c(F)cc(F)cc2F)n1-c1c(Cl)cccc1Cl (racemic) [compound 227] |  |  |  |  | Test D rating (100 = 100% disease control, 0 = no disease control relative to the controls) [1, 6]: 0%; Test A rating (100 = 100% disease control, 0 = no disease control relative to the controls) [2, 6]: 84%; Test C rating (100 = 100% disease control, 0 = no disease control relative to the controls) [3, 6]: 40%; Test B rating (100 = 100% disease control, 0 = no disease control relative to the controls) [4, 6]: 83%
11 | Cc1ncc(C(O)c2ccc(Cl)cc2)n1-c1ccc(F)cc1F (stereo not drawn) [compound 378] |  |  |  |  | Test D rating (% disease control, wheat powdery mildew) [1, 7]: 0%; Test A rating (% disease control, wheat leaf rust) [2, 7]: 37%; Test C rating (% disease control, tomato Botrytis) [3, 7]: 0%; Test B rating (% disease control, wheat leaf blotch) [4, 7]: 74%
12 | OC(c1ccc(F)cc1F)c1c(Cl)nc(Cl)n1-c1ccc(F)cc1F (single isomer, unassigned) [compound 78] |  |  |  |  | Test D rating (100 = 100% disease control, 0 = no disease control relative to the controls) [1, 6]: 82%; Test A rating (100 = 100% disease control, 0 = no disease control relative to the controls) [2, 6]: 100%; Test C rating (100 = 100% disease control, 0 = no disease control relative to the controls) [3, 6]: 99%; Test B rating (100 = 100% disease control, 0 = no disease control relative to the controls) [4, 6]: 100%
13 | COc1ccc(C(O)c2c(Br)nc(C)n2-c2ccc(F)cc2Br)c(F)c1 (stereo not drawn) [compound 310] | 56* % | 100* % | 100* % | 100* % | 
14 | COc1ccc(C(O)c2c(Cl)nc(Br)n2-c2c(F)cccc2F)c(Cl)c1 (racemic) [compound 237] | 98* % | 100* % | 100* % | 100* % | 
15 | Cc1nc(Cl)n(-c2c(F)cc(F)cc2Cl)c1C(O)c1ccc(F)cc1Cl (racemic) [compound 9] |  |  |  |  | Test D rating (100 = 100% disease control, 0 = no disease control relative to the controls) [1, 6]: 100%; Test A rating (100 = 100% disease control, 0 = no disease control relative to the controls) [2, 6]: 100%; Test C rating (100 = 100% disease control, 0 = no disease control relative to the controls) [3, 6]: 100%; Test B rating (100 = 100% disease control, 0 = no disease control relative to the controls) [4, 6]: 100%
16 | Cc1nc(Cl)c(C(O)c2ccc(F)cc2Cl)n1-c1c(F)cc(Cl)cc1F (stereo not drawn) [compound 117] | 0* % | 99* % | 0* % | 100* % | 
17 | Cc1nc(Br)c(C(O)c2ccc(F)cc2F)n1-c1ccc(F)cc1F (stereo not drawn) [compound 382] |  |  |  |  | Test D rating (% disease control, wheat powdery mildew) [1, 7]: 0%; Test A rating (% disease control, wheat leaf rust) [2, 7]: 100%; Test C rating (% disease control, tomato Botrytis) [3, 7]: 99%; Test B rating (% disease control, wheat leaf blotch) [4, 7]: 100%
18 | Cc1cccc(Cl)c1-n1c(C)nc(Cl)c1C(O)c1ccc(F)cc1F (stereo not drawn) [compound 320] | 79* % | 99* % | 96* % | 100* % | 
19 | COc1cc(F)c(C(O)c2c(Cl)nc(C)n2-c2ccc(F)cc2Br)c(F)c1 (stereo not drawn) [compound 325] | 92* % | 100* % | 100* % | 98* % | 
20 | Cc1ncc(C(O)c2ccc(Cl)cc2)n1-c1ccc(F)cc1Cl (stereo not drawn) [compound 57] |  |  |  |  | Test D rating (100 = 100% disease control, 0 = no disease control relative to the controls) [1, 6]: 0%; Test A rating (100 = 100% disease control, 0 = no disease control relative to the controls) [2, 6]: 96%; Test C rating (100 = 100% disease control, 0 = no disease control relative to the controls) [3, 6]: 34%; Test B rating (100 = 100% disease control, 0 = no disease control relative to the controls) [4, 6]: 100%
21 | Cc1nc(Br)c(C(O)c2ccc(F)cc2Br)n1-c1ccc(F)cc1F (stereo not drawn) [compound 309] | 64* % | 100* % | 65* % | 100* % | 
22 | Cc1cc(F)ccc1C(O)c1c(C)ncn1-c1c(F)cc(F)cc1Cl (racemic) [compound 15] |  |  |  | 0* % | Test D rating (100 = 100% disease control, 0 = no disease control relative to the controls) [1, 6]: 0%; Test A rating (100 = 100% disease control, 0 = no disease control relative to the controls) [2, 6]: 0%; Test C rating (100 = 100% disease control, 0 = no disease control relative to the controls) [3, 6]: 15%
23 | COc1ccc(C(O)c2c(Br)nc(C)n2-c2c(F)cccc2Cl)c(F)c1 (racemic) [compound 275] | 99* % | 100* % | 100* % | 100* % | 
24 | OC(c1ccc(F)cc1F)c1cnc(C2CC2)n1-c1c(F)cccc1Br (stereo not drawn) [compound 152] |  |  |  |  | Test D rating (100 = 100% disease control, 0 = no disease control relative to the controls) [1, 6]: 0%; Test A rating (100 = 100% disease control, 0 = no disease control relative to the controls) [2, 6]: 74%; Test C rating (100 = 100% disease control, 0 = no disease control relative to the controls) [3, 6]: 0%; Test B rating (100 = 100% disease control, 0 = no disease control relative to the controls) [4, 6]: 0%

— patent US20130143929A1, “FUNGICIDAL IMIDAZOLES” (EI DU PONT DE NEMOURS AND COMPANY, priority 2010, published 2013)
